Source: US8211916B2, “N- and O-substituted 4-[2-(diphenylmethoxy)-ethyl]-1-[(phenyl)methyl]piperidine analogs and methods of treating CNS disorders therewith” (Wayne State University, priority 2000, dated 2012)
Read-outs that look alike come from different tables or passages of the source.

Tests used:
rat DAT = rat DAT (Rattus norvegicus, UniProt P23977); assay: Rat DAT binding, [3H]Win 35,428, striatal membranes; settings: for NET/DAT / SERT/DAT: Table 4, binding selectivity
Method: (§2) Briefly, rat striatal membranes were incubated with radioligand and inhibitor for 2 h on ice in a sodium phosphate buffer at a final Na^+ concentration of 30 nM, pH 7.4, at room temperature. The assays were terminated by filtration through glass fiber filtermats (Wallac, Inc., Gaithersburg, Md.), presoaked in 0.05% (v/v) polyethyleneimine, with a MACH3-96 Tomtec harvester (Wallac, Inc.). Filters were assayed for radioactivity in a Microbeta Plus liquid scintillation counter (Wallac, Inc.).

[1] = target: T1, Norepinephrine (NET) Transporter (Rattus norvegicus, UniProt Q63380); assay: NET binding, [3H]nisoxetine
T1 construct: and norepinephrine Transporters in Rat Striatum; from tissue
T1 sequence (Q63380 1-617): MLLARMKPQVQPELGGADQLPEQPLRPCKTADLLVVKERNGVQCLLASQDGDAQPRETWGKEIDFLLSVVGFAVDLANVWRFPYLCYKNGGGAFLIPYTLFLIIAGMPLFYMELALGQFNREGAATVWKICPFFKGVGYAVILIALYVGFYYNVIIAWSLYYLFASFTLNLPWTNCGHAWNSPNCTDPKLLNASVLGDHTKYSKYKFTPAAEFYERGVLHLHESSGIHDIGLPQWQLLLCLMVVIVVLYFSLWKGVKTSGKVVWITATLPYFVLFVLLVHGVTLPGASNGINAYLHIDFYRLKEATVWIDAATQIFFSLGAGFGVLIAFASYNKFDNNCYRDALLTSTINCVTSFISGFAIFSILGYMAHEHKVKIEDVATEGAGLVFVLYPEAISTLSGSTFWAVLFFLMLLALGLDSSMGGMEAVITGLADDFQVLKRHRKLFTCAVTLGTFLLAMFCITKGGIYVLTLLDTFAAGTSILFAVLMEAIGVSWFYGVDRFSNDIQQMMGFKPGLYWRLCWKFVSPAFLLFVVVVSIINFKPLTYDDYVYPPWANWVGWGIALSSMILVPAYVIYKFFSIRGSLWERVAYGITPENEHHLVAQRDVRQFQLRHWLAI

[2] = target: T2, dopamine transporter (DAT) (Rattus norvegicus, UniProt P23977); settings: for [3H]DA/DAT Binding: Table 4, uptake/binding ratio
T2 sequence (P23977 whole entry): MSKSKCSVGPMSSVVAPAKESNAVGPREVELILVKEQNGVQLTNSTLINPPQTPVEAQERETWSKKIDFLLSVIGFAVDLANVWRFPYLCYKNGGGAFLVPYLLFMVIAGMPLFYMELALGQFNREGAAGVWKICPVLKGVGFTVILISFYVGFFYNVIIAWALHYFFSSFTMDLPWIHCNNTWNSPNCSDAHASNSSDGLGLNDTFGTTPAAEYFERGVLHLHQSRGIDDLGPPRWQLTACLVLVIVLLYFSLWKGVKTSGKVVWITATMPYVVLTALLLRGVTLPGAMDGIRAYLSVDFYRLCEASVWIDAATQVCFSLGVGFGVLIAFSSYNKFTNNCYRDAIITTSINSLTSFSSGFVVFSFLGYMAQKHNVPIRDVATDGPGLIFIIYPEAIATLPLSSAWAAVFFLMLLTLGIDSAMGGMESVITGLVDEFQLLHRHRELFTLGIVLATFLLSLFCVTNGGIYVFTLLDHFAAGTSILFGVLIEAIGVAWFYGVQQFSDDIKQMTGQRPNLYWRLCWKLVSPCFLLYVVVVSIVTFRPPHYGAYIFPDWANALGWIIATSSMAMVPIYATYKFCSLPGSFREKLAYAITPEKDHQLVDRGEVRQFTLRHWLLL

rat SERT = target: T3, rat SERT (Rattus norvegicus, UniProt P31652); assay: Rat SERT binding, [3H]citalopram, striatal membranes
T3 construct: from tissue; host or cells: rat striatum (membranes)
T3 sequence (P31652 whole entry): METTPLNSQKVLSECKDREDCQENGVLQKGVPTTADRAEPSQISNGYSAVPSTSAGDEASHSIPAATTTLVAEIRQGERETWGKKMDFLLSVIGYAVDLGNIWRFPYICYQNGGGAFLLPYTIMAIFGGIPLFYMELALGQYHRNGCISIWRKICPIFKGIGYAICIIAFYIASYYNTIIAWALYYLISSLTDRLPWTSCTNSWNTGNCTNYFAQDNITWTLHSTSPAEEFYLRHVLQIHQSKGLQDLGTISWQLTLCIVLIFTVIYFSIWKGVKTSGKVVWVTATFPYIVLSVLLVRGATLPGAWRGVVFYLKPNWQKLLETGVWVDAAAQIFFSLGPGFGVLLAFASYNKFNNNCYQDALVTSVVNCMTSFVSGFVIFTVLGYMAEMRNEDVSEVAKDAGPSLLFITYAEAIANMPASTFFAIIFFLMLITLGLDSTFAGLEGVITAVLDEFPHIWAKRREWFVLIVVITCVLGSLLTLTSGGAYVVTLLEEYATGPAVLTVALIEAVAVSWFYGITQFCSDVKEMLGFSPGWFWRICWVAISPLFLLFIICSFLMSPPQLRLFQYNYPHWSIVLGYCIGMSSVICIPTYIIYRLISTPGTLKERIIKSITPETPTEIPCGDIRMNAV
Method: as §2

[3] = target: T2, dopamine transporter (DAT); assay: biochemical
DAT = target: T4, DAT (Rattus norvegicus, UniProt P23977); assay: Uptake of [3H]DA by DAT, rat striatum; format: biochemical; settings: [3H]DA uptake, rat striatum; read-out: Ki (DAT), inhibition of DA uptake
T4 construct: from tissue; host or cells: rat striatum
T4 sequence (P23977 whole entry): as the sequence (P23977 whole entry) above
Excerpt: (§1) Transporter assays. The affinity of test compounds in binding to rat DAT and in inhibiting monoamine uptake was monitored as described by us previously. […] Rat cerebral cortex was used for assessing uptake of [^3H]serotonin by SERT and hippocampus for uptake of [^3H]NE by NET. […] At lease five triplicate concentrations of each test compound were studied, spaced evenly around the IC50 value. The latter was estimated by nonlinear computer curve-fitting procedures and converted to Ki with the Cheng-Prusoff equation.

NET = target: T5, NET (Rattus norvegicus, UniProt Q63380); assay: Uptake of [3H]NE by NET, rat hippocampus; format: biochemical; settings: [3H]NE uptake, read-out: Ki (NET), inhibition of NE uptake
T5 construct: from tissue; host or cells: rat hippocampus
T5 sequence (Q63380 1-617): as the sequence (Q63380 1-617) above
Excerpt: as §1

[4] = Stability of free base on storage; format: physicochemical; settings: room temperature
Method: To a solution of oxalyl chloride ([…], […]) in CH2Cl2 (3 mL) cooled to −78° C. was added dropwise 108 mg dimethylsulfoxide (1.38 mmol, 3 equiv). The mixture was stirred for 10 min and a solution of 236 mg racemic trans-3-hydroxy-4-[2-(diphenylmethoxy)ethyl]-1-[(4-fluorophenyl)methyl]piperidine (0.46 mmol) in CH2Cl2 (1 mL) was added dropwise. […] […]; H, 5.92; N, 2.76.

[5] = Table 3, read-out: NET, IC50, nM [3H]nisoxetine
[6] = Table 5, rat striatum, read-out: NET, IC50, nM [3H]nisoxetine

Sequence of rat DAT (P23977 whole entry): as the sequence (P23977 whole entry) above

With `Fc1ccc(CN2CCC(CNCC(c3ccccc3)c3ccccc3)CC2)cc1` [Example 11, 4-[[2-(Diphenyl)ethyl]aminomethyl]-1-[(4-fluorophenyl)methyl]piperidine] the NET/DAT (rat DAT) was 5.6, the SERT/DAT (rat DAT) was 6.9 and the “affinity for the DAT” value (rat DAT; in words) was “strong affinity”. For the same compound, the IC50 (rat DAT; read-out: DAT, IC50, Table 1) was 19.7 ± 1.4 nM, the IC50 ([1]; Table 1, read-out: NET, IC50) was 1110 nM and the “[3H]DA/DAT Binding” value [2] was 2.5. For the same compound, the IC50 ([2]; read-out: [3H]DA Inhibition, IC50, Table 2, rat synaptosome tissue) was 49.6 ± 7.2 nM, the IC50 (rat SERT; Table 1, read-out: SERT, IC50) was 137 ± 45.6 nM and the “affinity for the SERT” value (rat SERT; in words) was “moderate affinity”.
`CS(=O)(=O)Nc1ccc(CN2CCC(CCOC(c3ccccc3)c3ccccc3)CC2)cc1` [Example 6, 4-[2-(Diphenylmethoxy)ethyl]-1-[((4-methylsulfonylamino)phenyl)methyl]piperidine] showed an IC50 (rat DAT; read-out: DAT, IC50, Table 1) of 26.6 ± 1.4 nM, an IC50 [3] of 9.7 ± 1.2 nM and an IC50 (rat SERT; Table 1, read-out: SERT, IC50) of 586 ± 29.2 nM.
`Fc1ccc(CN2CCC(CNOC(c3ccccc3)c3ccccc3)CC2)cc1` [Example 7, 4-[((2-Diphenylmethoxy)amino)methyl]-1-[(4-fluorophenyl)methyl]piperidine] showed an IC50 (rat DAT; read-out: DAT, IC50, Table 1) of 34.4 ± 4.2 nM, an IC50 [1] of 691 ± 68 nM and an IC50 [3] of 16.6 ± 2.8 nM. The IC50 (rat SERT; Table 1, read-out: SERT, IC50) was 626 ± 33 nM.
Compound `Fc1ccc(CN2CCC(CCOC(c3ccccc3)c3ccccc3)CC2)cc1F` [Example 2, 4-[2-(Diphenylmethoxy)ethyl]-1-[(3,4-difluorophenyl)methyl]piperidine] has an SERT/DAT selectivity ratio (rat DAT) of 122, an IC50 (rat DAT; read-out: DAT, IC50, Table 1) of 10.1 ± 0.9 nM and an IC50 [3] of 12 ± 1.62 nM. The IC50 (rat SERT; Table 1, read-out: SERT, IC50) was 1220 ± 139 nM.
`Fc1ccc(CN2CCC(CCNC(c3ccccc3)c3ccccc3)CC2)cc1F` [Example 8, 4-[2-((Diphenylmethyl)amino)ethyl]-1-[(3,4-difluorophenyl)methyl]piperidine] showed an IC50 ([1]; Table 1, read-out: NET, IC50) of 1030 nM, an IC50 [3] of 10.7 ± 1.8 nM and an IC50 (rat SERT; Table 1, read-out: SERT, IC50) of 1590 ± 160 nM.
For `Fc1ccc(CNC2CCC(C(c3ccccc3)c3ccccc3)NC2)cc1` (racemic) [(±)-7a, 2-diphenylmethyl-5-(4-fluorobenzylamino)piperidine], the IC50 (rat DAT) was 30 ± 0.5 nM, the SERT/DAT selectivity ratio (rat DAT) was 93.7 and the NET/DAT (rat DAT) was 44.9. The SERT/DAT (rat DAT) was 93.7, the IC50 [1, 5] was 1350 nM and the “[3H]DA/DAT Binding” value [2] was 0.03. For the same compound, the IC50 [3] was 28.9 ± 2.5 nM and the IC50 (rat SERT) was 2810 nM.
In the case of `O[C@@H](CN[C@H]1CC[C@@H](C(c2ccccc2)c2ccccc2)NC1)c1ccc(F)cc1` [Example 4a, (R)-2-[(3S,6S)-6-benzhydrylpiperidin-3-ylamino)-1-(4-fluorophenyl)ethanol], the Ki (DAT) is reported as 236 nM and the Ki (NET) is reported as 1440 nM.
Compound `c1ccc(CN2CCC(CCNC(c3ccccc3)c3ccccc3)CC2)cc1` [Example 9] has an IC50 ([1]; Table 1, read-out: NET, IC50) of 2620 nM, an IC50 [3] of 20.6 ± 2.5 nM and an IC50 (rat SERT; Table 1, read-out: SERT, IC50) of 1560 ± 208 nM.
Compound `N#Cc1ccc(CN2CCC(CCOC(c3ccccc3)c3ccccc3)CC2)cc1` [Example 4, 4-[2-(Diphenylmethoxy)ethyl]-1-[(4-cyanophenyl)methyl]piperidine] has an SERT/DAT selectivity ratio (rat DAT) of 615, an IC50 (rat DAT; read-out: IC50 for the dopamine transporter) of 3.7 nM and an IC50 [3] of 4.58 ± 0.8 nM. The IC50 (rat SERT; read-out: SERT, IC50) was 2280 ± 470 nM.
With `OC1CN(Cc2ccc(F)cc2)CCC1CCOC(c1ccccc1)c1ccccc1` (racemic) [Example 16, racemic trans-3-hydroxy-4-[2-diphenylmethoxy)ethyl]-1-[(4-fluorophenyl)methyl]piperidine] the IC50 (rat DAT) was 5.96 ± 1.26 nM, the IC50 [1, 6] was 637 ± 114 nM and the IC50 (rat SERT) was 1110 nM.
`Fc1ccc(CN[C@H]2CC[C@H](C(c3ccccc3)c3ccccc3)NC2)cc1` (racemic) [(±)-7b, trans-2-diphenylmethyl-5-(4-fluorobenzylamino)piperidine] showed an IC50 (rat DAT) of 212 ± 20 nM, an SERT/DAT selectivity ratio (rat DAT) of 6.28 and an NET/DAT (rat DAT) of 21. For the same compound, the SERT/DAT (rat DAT) was 6.28, the IC50 [1, 5] was 4470 nM and the “[3H]DA/DAT Binding” value [2] was 0.5. For the same compound, the IC50 [3] was 106 ± 10 nM and the IC50 (rat SERT) was 1330 nM.
For `O[C@H](CN[C@H]1CC[C@@H](C(c2ccccc2)c2ccccc2)NC1)c1ccc(F)cc1` [Example 4b, (S)-2-[(3S,6S)-6-benzhydrylpiperidin-3-ylamino)-1-(4-fluorophenyl)ethanol], the Ki (DAT) was 152 nM and the Ki (NET) was 306 nM.
Compound `O=C1CN(Cc2ccc(F)cc2)CCC1CCOC(c1ccccc1)c1ccccc1` (racemic) [Example 18, racemic 3-Keto-4-[2-(diphenylmethoxy)ethyl]-1-[(4-fluorophenyl)methyl]piperidine] has an IC50 (rat DAT) of 99 ± 18 nM, an IC50 [1, 6] of 6300 nM and an IC50 (rat SERT) of 7750 nM. For the same compound, the “stability of the free base” value [4] was “decomposes at room temperature”.
For `Ic1ccc(CN2CCC(CCOC(c3ccccc3)c3ccccc3)CC2)cc1` [Example 19, 4-[2-(diphenylmethoxy)ethyl]-1-[(4-iodophenyl)methyl]piperidine], the IC50 (rat DAT; read-out: DAT, IC50, Table 1) was 0.96 ± 0.16 nM, the IC50 ([1]; Table 1, read-out: NET, IC50) was 1150 ± 116 nM and the IC50 (rat SERT; Table 1, read-out: SERT, IC50) was 2920 ± 432 nM.
